Our source for the T/C values is PubChem BioAssay AID330 (DTP/NCI, 2004).

Where “and” joins values, the source holds several entries; their conditions need not be identical. Equal values may be shown once. Toxic doses and inconclusive results are not listed.

In this experiment the test system is P388 leukemia ip, CD2F1 mice, survival T/C. Put plainly: NCI In Vivo Anticancer Drug Screen. Data for tumor model P388 Leukemia (intraperitoneal) in CD2F1 (CDF1) mice. The note with it: endpoint: median survival time, higher = longer survival. Summed up:
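Mice carrying the transplanted tumor received test compound or vehicle. Survival was recorded in each group, and the value is the treated-group measurement divided by that of the vehicle-treated control group.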

The mark [1] stands for this setting: dose: 100.0 mg/kg/injection, schedule: Q04DX002 (ip), vehicle: saline with Tween-80.
[2] abbreviates: dose: 200.0 mg/kg/injection, schedule: Q04DX002 (ip), vehicle: saline with Tween-80.
Where [3] appears, read: dose: 400.0 mg/kg/injection, schedule: Q04DX002 (ip), vehicle: saline with Tween-80.
The mark [4] stands for this setting: dose: 100.0 mg/kg/injection, schedule: Q01DX001 (ip), vehicle: saline with Tween-80.
Setting [5] is: dose: 200.0 mg/kg/injection, schedule: Q01DX001 (ip), vehicle: saline with Tween-80.
The mark [6] stands for this setting: dose: 50.0 mg/kg/injection, schedule: Q01DX005 (ip), vehicle: saline with Tween-80.
The mark [7] stands for this setting: dose: 100.0 mg/kg/injection, schedule: Q01DX005 (ip), vehicle: saline with Tween-80.
Where [8] appears, read: dose: 200.0 mg/kg/injection, schedule: Q01DX005 (ip), vehicle: saline with Tween-80.
Where [9] appears, read: dose: 12.5 mg/kg/injection, schedule: Q01DX009 (ip), vehicle: saline.
Setting [10] is: dose: 100.0 mg/kg/injection, schedule: Q01DX009 (ip), vehicle: saline.
The mark [11] stands for this setting: dose: 100.0 mg/kg/injection, schedule: Q01DX009 (ip), vehicle: saline with Tween-80.
Setting [12] is: dose: 25.0 mg/kg/injection, schedule: Q01DX009 (ip), vehicle: saline.

In the case of `CCOc1cccc2c1C(O)(C#Cc1ccccc1)c1cccc(OCC)c1C2(O)C#Cc1ccccc1` (stereo not given), the T/C under setting [1] was 87 % of control, the T/C under setting [2] was 87 % of control and the T/C under setting [3] was 91 % of control.
For the molecule `CCOC(=O)c1ccc(N=NN(C)CC2OC3OC(C)(C)OC3C2OC)cc1` (stereo not given), the T/C was 98 % of control under setting [1], 98 % of control under setting [2] and 102 % of control under setting [3].
Regarding `COC(=O)Cn1/c(=N\N=C(/C)c2ccc(C)cc2)sc2ccccc21`, the T/C under setting [4] is 95 % of control and the T/C under setting [5] is 91 % of control.
As to `C=C1C(O)C2(O)OCC34C(CC5C(C)=CC(=O)C(O)C5(C)C23)OC(=O)C(OC(=O)C(C)(O)CC)C14` (stereo not given), the T/C by setting is: (dose: 0.25 mg/kg/injection, schedule: Q01DX009 (ip), vehicle: saline + alcohol) 106 % of control and 112 % of control; (dose: 0.5 mg/kg/injection, schedule: Q01DX009 (ip), vehicle: saline + alcohol) 118 % of control.
For `CCCCc1ccc(N2C(N)=NC(N)=NC2(C)C)cc1`, the T/C by setting is: (dose: 3.12 mg/kg/injection, schedule: Q01DX005 (ip), vehicle: Klucel (hydroxypropylcellulose) (HPC)) 108 % of control and 106 % of control and 111 % of control; (dose: 6.25 mg/kg/injection, schedule: Q01DX005 (ip), vehicle: Klucel (hydroxypropylcellulose) (HPC)) 110 % of control [middle of 4 runs]; (dose: 12.5 mg/kg/injection, schedule: Q01DX005 (ip), vehicle: Klucel (hydroxypropylcellulose) (HPC)) 114 % of control [middle of 4 runs]; (dose: 25.0 mg/kg/injection, schedule: Q01DX005 (ip), vehicle: Klucel (hydroxypropylcellulose) (HPC)) 120 % of control and 109 % of control.
Regarding `CCCCCCNCC(=O)OCC`, the T/C is, setting by setting: (dose: 50.0 mg/kg/injection, schedule: Q01DX005 (ip), vehicle: saline) 101 % of control; (dose: 100.0 mg/kg/injection, schedule: Q01DX005 (ip), vehicle: saline) 106 % of control; (dose: 200.0 mg/kg/injection, schedule: Q01DX005 (ip), vehicle: saline) 110 % of control.
In the case of `O=C(O)C(=O)O.O=C([O-])C(=O)O.O=C([O-])C(=O)O.[Fe+3].[K+]`, the T/C is, setting by setting: (dose: 30.0 mg/kg/injection, schedule: Q01DX005 (ip), vehicle: saline) 100 % of control; (dose: 60.0 mg/kg/injection, schedule: Q01DX005 (ip), vehicle: saline) 99 % of control.
`COC1NC(=O)Oc2ccccc21` (stereo not given): the T/C runs as follows: under setting [6], 109 % of control and 97 % of control; under setting [7], 108 % of control and 109 % of control; under setting [8], 114 % of control.
Turning to `COC(=O)Nc1nc2ccccc2[nH]1`, the T/C runs as follows: (dose: 20.0 mg/kg/injection, schedule: Q04DX003 (ip), vehicle: other) 101 % of control; (dose: 20.0 mg/kg/injection, schedule: Q04DX003 (oral), vehicle: other) 100 % of control; (dose: 40.0 mg/kg/injection, schedule: Q04DX003 (ip), vehicle: other) 100 % of control; (dose: 40.0 mg/kg/injection, schedule: Q04DX003 (oral), vehicle: other) 101 % of control; (dose: 80.0 mg/kg/injection, schedule: Q04DX003 (ip), vehicle: other) 101 % of control; (dose: 80.0 mg/kg/injection, schedule: Q04DX003 (oral), vehicle: other) 101 % of control. The T/C was 107 % of control (dose: 160.0 mg/kg/injection, schedule: Q04DX003 (ip), vehicle: other); 105 % of control (dose: 160.0 mg/kg/injection, schedule: Q04DX003 (oral), vehicle: other); 102 % of control (dose: 320.0 mg/kg/injection, schedule: Q04DX003 (ip), vehicle: other); 100 % of control (dose: 320.0 mg/kg/injection, schedule: Q04DX003 (oral), vehicle: other); 111 % of control (dose: 640.0 mg/kg/injection, schedule: Q04DX003 (ip), vehicle: other); 102 % of control (dose: 640.0 mg/kg/injection, schedule: Q04DX003 (oral), vehicle: other).
For the molecule `CC(C)NC(=O)OCc1c(COC(=O)NC(C)C)c(-c2ccc(Cl)c(Cl)c2)n2c1CC(OC(=O)CN(C)C)C2` (stereo not given), the T/C (dose: 2.5 mg/kg/injection, schedule: Q01DX009 (ip), vehicle: water) was 101 % of control; the T/C (dose: 5.0 mg/kg/injection, schedule: Q01DX009 (ip), vehicle: distilled water + Tween-80) was 111 % of control; the T/C (dose: 5.0 mg/kg/injection, schedule: Q01DX009 (ip), vehicle: water) was 117 % of control; the T/C (dose: 10.0 mg/kg/injection, schedule: Q01DX009 (ip), vehicle: distilled water + Tween-80) was 122 % of control; the T/C (dose: 80.0 mg/kg/injection, schedule: Q01DX009 (ip), vehicle: water) was 110 % of control.
`C1OC1CO[C@@H]1CO[C@H]2[C@@H]1OC[C@H]2OCC1CO1` (stereo not given in full): the T/C by setting is: under setting [9], 120 % of control; under setting [10], 194 % of control; (dose: 100.0 mg/kg/injection, schedule: Q01DX009 (ip), vehicle: suspension in saline) 163 % of control; (dose: 200.0 mg/kg/injection, schedule: Q01DX009 (ip), vehicle: saline) 192 % of control; (dose: 400.0 mg/kg/injection, schedule: Q01DX009 (ip), vehicle: saline with Tween-80) 213 % of control; (dose: 400.0 mg/kg/injection, schedule: Q01DX009 (ip), vehicle: saline) 94 % of control. Also, the T/C is, setting by setting: (dose: 400.0 mg/kg/injection, schedule: Q01DX009 (ip), vehicle: suspension in saline) 100 % of control; (dose: 400.0 mg/kg/injection, schedule: Q04DX003 (ip), vehicle: saline with Tween-80) 186 % of control; (dose: 600.0 mg/kg/injection, schedule: Q04DX003 (ip), vehicle: saline with Tween-80) 200 % of control.
As for `CC(CCOc1ccc2ccc(=O)oc2c1)C1=CC(=O)C(C)(C)O1` (stereo not given), the T/C was 103 % of control (dose: 12.5 mg/kg/injection, schedule: Q01DX009 (ip), vehicle: saline with Tween-80); 90 % of control (dose: 25.0 mg/kg/injection, schedule: Q01DX009 (ip), vehicle: saline with Tween-80); 116 % of control (dose: 50.0 mg/kg/injection, schedule: Q01DX009 (ip), vehicle: saline with Tween-80); 116 % of control under setting [11].
Turning to `Oc1ccc(N=C2N=c3c(c4ccccc4c4ccccc34)=N2)c2ccccc12`, the T/C is 98 % of control (dose: 25.0 mg/kg/injection, schedule: Q01DX005 (ip), vehicle: saline with Tween-80); 100 % of control under setting [6]; 100 % of control under setting [7]; 107 % of control under setting [8].
As for `O=C1CCC(c2nnc(COc3ccc(Cl)cc3)o2)N1Cc1ccccc1` (stereo not given), the T/C under setting [4] is 99 % of control; the T/C under setting [5] is 102 % of control; the T/C (dose: 400.0 mg/kg/injection, schedule: Q01DX001 (ip), vehicle: saline with Tween-80) is 98 % of control.
Take `CCCCCCCC(=O)NCCCC(C)Nc1cc(OC)cc2cccnc12` (stereo not given): the T/C was 106 % of control (dose: 60.0 mg/kg/injection, schedule: Q01DX005 (ip), vehicle: saline with Tween-80) and 99 % of control (dose: 120.0 mg/kg/injection, schedule: Q01DX005 (ip), vehicle: saline with Tween-80).
For `N#CC(C(N)=O)C(CC(=O)c1ccccc1)c1ccccc1` (stereo not given), the T/C runs as follows: (dose: 50.0 mg/kg/injection, schedule: Q01DX005 (ip), vehicle: Klucel (hydroxypropylcellulose) (HPC)) 100 % of control; (dose: 100.0 mg/kg/injection, schedule: Q01DX005 (ip), vehicle: Klucel (hydroxypropylcellulose) (HPC)) 102 % of control; (dose: 200.0 mg/kg/injection, schedule: Q01DX005 (ip), vehicle: Klucel (hydroxypropylcellulose) (HPC)) 101 % of control.
`O=C(O)c1c(Cl)c(Cl)c(Cl)c(Cl)c1-c1c2cc(I)c(=O)c(I)c-2oc2c(I)c(O)c(I)cc12`: the T/C under setting [9] is 103 % of control; the T/C under setting [12] was 88 % of control; the T/C under setting [6] was 92 % of control; the T/C (dose: 50.0 mg/kg/injection, schedule: Q01DX009 (ip), vehicle: saline) is 88 % of control and 91 % of control; the T/C under setting [7] is 86 % of control; the T/C under setting [10] was 97 % of control.
For the molecule `CCOC(=O)C(C(C)=O)C(=O)C(C)(C)C` (stereo not given), the T/C reads like this: (dose: 6.25 mg/kg/injection, schedule: Q01DX009 (ip), vehicle: saline) 112 % of control; under setting [9], 102 % of control; under setting [12], 102 % of control; under setting [11], 91 % of control; (dose: 200.0 mg/kg/injection, schedule: Q01DX009 (ip), vehicle: saline with Tween-80) 104 % of control.
